The source of these data is US10280166B2, “2-(1H-indazol-3-yl)-3H-imidazo[4,5-B]pyridine and therapeutic uses thereof” (Samumed, LLC, priority 2014, dated 2019).

Test [1] concerns Wnt activity (SW480 colon carcinoma cells stably expressing the Sp5-Luc reporter gene). The test is described as follows: Sp5-Luc reporter gene screening assay for Wnt activity in SW480 cells. Conditions: Homo sapiens, 42 h incubation, luminescence. The format is cell-based. The procedure, abridged: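 SW480 cells stably carrying an Sp5 promoter (eight TCF/LEF sites)-luciferase reporter were plated overnight in 10% FCS medium. BrightGlo luminescence was normalised to DMSO wells, and IC50 was obtained by four-parameter fit.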
A general note: In a reporter assay the amount or activity of a reporter protein is the signal.

The test system of test [2] is primary human fibroblasts derived from IPF patients (LL29 cells). The test is described as follows: Inhibition of fibrosis (αSMA) in TGF-β1 treated primary human fibroblasts from IPF patients. It is filed as cell-based. The following applies: Fibroblast, 96 h, TGF-β1 20 ng/mL, 4 days, % αSMA positive cells. The source says:
The above synthesized compounds were screened using primary human fibroblasts (derived from IPF patients) treated with TGF-β1 to determine their ability to inhibit the fibrotic process.
Primary human fibroblasts derived from IPF patients (LL29 cells) [^1Xiaoqiu Liu, et.al., “Fibrotic Lung Fibroblasts Show Blunted Inhibition by cAMP Due to Deficient cAMP Response Element-Binding Protein Phosphorylation”, Journal of Pharmacology and Experimental Therapeutics (2005), 315(2), 678-687; ^2Watts, K. L., et.al., “RhoA signaling modulates cyclin D1 expression in human lung fibroblasts; implications for idiopathic pulmonary fibrosis”, Respiratory Research (2006), 7(1), 88] were obtained from American Type Culture Collection (ATCC) and expanded in F12 medium supplemented with 15% Fetal Bovine Serum and Penicillin/Streptomycin.
Each compound was dissolved in DMSO as a 10 mM stock and used to prepare compound source plates. Serial dilution (1:2, 11-point dose-response curves from 10 μM to 1.87 nM) and compound transfer was performed using the ECHO 550 (Labcyte, Sunnyvale, Calif.) into 384-well clear bottom assay plates (Greiner Bio-One) with appropriate DMSO backfill for a final DMSO concentration of 0.1%. LL29 cells were plated at 1,500 cells/well in 80 μl/well F12 medium supplemented with 1% Fetal Bovine Serum. One hour after addition of the cells, TGF-β1 (Peprotech; 20 ng/mL) was added to the plates to induce fibrosis (ref. 1 and 2 above). Wells treated with TGF-β1 and containing DMSO were used as controls. Cells were incubated at 37° C. and 5% CO2 for 4 days. Following incubation for 4 days, SYTOX green nucleic acid stain (Life Technologies [Thermo Fisher Scientific]) was added to the wells at a final concentration of 1 uM and incubated at room temperature for 30 min. Cells were then fixed using 4% formaldehyde (Electron Microscopy Sciences), washed 3 times with PBS followed by blocking and permeabilization using 3% Bovine Serum Albumin (BSA; Sigma) and 0.3% Triton X-100 (Sigma) in PBS. Cells were then stained with antibody specific to α-smooth muscle actin (αSMA; Abcam) (ref. 1 and 2 above) in 3% Bovine Serum Albumin (BSA; Sigma) and 0.3% Triton X-100 (Sigma) in PBS, and incubated overnight at 4° C. Cells were then washed 3 times with PBS, followed by incubation with Alexa Flor-647 conjugated secondary antibody (Life Technologies [Thermo Fisher Scientific]) and DAPI at room temperature for 1 hour. Cells were then washed 3 times with PBS and plates were sealed for imaging. αSMA staining was imaged by excitation at 630 nm and emission at 665 nm and quantified using the Compartmental Analysis program on the CellInsight CX5 (Thermo Scientific). Dead or apoptotic cells were excluded from analysis based on positive SYTOX green staining. % of total cells positive for αSMA were counted in each well and normalized to the average of 11 wells treated with TGF-β1 on the same plate using Dotmatics' Studies Software. The normalized averages (fold change over untreated) of 3 replicate wells for each compound concentration were used to create dose-responses curves and EC50 values were calculated using non-linear regression curve fit in the Dotmatics' Studies Software. The EC50 values are reported.

Each structure is given as a SMILES string.

For `FC1(F)CCN(Cc2cncc(-c3ccc4[nH]nc(-c5nc6c(N7CCCCC7)ccnc6[nH]5)c4c3)c2)C1` [Compound 181, 2-(5-(5-((3,3-Difluoropyrrolidin-1-yl)methyl)pyridin-3-yl)-1H-indazol-3-yl)-7-(piperidin-1-yl)-3H-imidazo[4,5-b]pyridine], in test [1], half-maximal inhibition (IC50) required 2580 nM. Moreover, the response in test [2] was half-maximal at 0.009 nM (EC50).

With `Cc1cn(-c2ccnc3[nH]c(-c4n[nH]c5ccc(-c6cncc(NC(=O)C(C)(C)C)c6)cc45)nc23)cn1` [Compound 190, N-(5-(3-(7-(4-Methyl-1H-imidazol-1-yl)-3H-imidazo[4,5-b]pyridin-2-yl)-1H-indazol-5-yl)pyridin-3-yl)pivalamide], in test [1], the half-maximal inhibitory concentration (IC50) (as a rule, the concentration that gives 50% inhibition) was determined as 7.4 nM. For the same molecule, in test [2], the response was half-maximal at 0.009 nM (EC50).

In test [1], `Cc1cn(-c2ccnc3[nH]c(-c4n[nH]c5ccc(-c6cncc(NC(=O)C7CCC7)c6)cc45)nc23)cn1` [Compound 202, N-(5-(3-(7-(4-Methyl-1H-imidazol-1-yl)-3H-imidazo[4,5-b]pyridin-2-yl)-1H-indazol-5-yl)pyridin-3-yl)cyclobutanecarboxamide] yielded an IC50 of 4.7 nM. Further, in test [2], the concentration giving a half-maximal response (EC50) (in general, the concentration that produces a half-maximal response) was found to be 0.018 nM.

Take `CC(C)C(=O)Nc1cncc(-c2ccc3[nH]nc(-c4nc5c(N6CCN(C)CC6)ccnc5[nH]4)c3c2)c1` [Compound 217, N-(5-(3-(7-(4-Methylpiperazin-1-yl)-3H-imidazo[4,5-b]pyridin-2-yl)-1H-indazol-5-yl)pyridin-3-yl)isobutyramide]: inhibition in test [1] was half-maximal at 173 nM (IC50). The molecule further registered a concentration for a half-maximal effect (EC50) in test [2] of 2.83 nM.

Turning to `CN1CCN(c2ccnc3[nH]c(-c4n[nH]c5ccc(-c6cncc(CN7CCCCC7)c6)cc45)nc23)CC1` [Compound 223, 7-(4-Methylpiperazin-1-yl)-2-(5-(5-(piperidin-1-ylmethyl)pyridin-3-yl)-1H-indazol-3-yl)-3H-imidazo[4,5-b]pyridine], it took 3070 nM to reach half-maximal inhibition in test [1] (IC50). Besides, the EC50 in test [2] was 0.009 nM.

`CN1CCN(c2ccnc3[nH]c(-c4n[nH]c5ccc(-c6cncc(NC(=O)C7CCCC7)c6)cc45)nc23)CC1` [Compound 229, N-(5-(3-(7-(4-Methylpiperazin-1-yl)-3H-imidazo[4,5-b]pyridin-2-yl)-1H-indazol-5-yl)pyridin-3-yl)cyclopentanecarboxamide]: the concentration for half-maximal inhibition (IC50) in test [1] worked out at 284 nM. In test [2], the concentration giving a half-maximal response (EC50) amounted to 1.07 nM.

In turn, `CN1CCN(c2ccnc3[nH]c(-c4n[nH]c5ccc(-c6cncnc6)cc45)nc23)CC1` [Compound 234, 7-(4-Methylpiperazin-1-yl)-2-(5-(pyrimidin-5-yl)-1H-indazol-3-yl)-3H-imidazo[4,5-b]pyridine] registered a concentration for half-maximal inhibition (IC50) in test [1] of 795 nM. Moreover, the EC50 in test [2] amounted to 0.434 nM.

Regarding `c1cncc(-c2ccc3[nH]nc(-c4nc5cccnc5[nH]4)c3c2)c1` [Compound 238, 2-(5-(Pyridin-3-yl)-1H-indazol-3-yl)-3H-imidazo[4,5-b]pyridine], the IC50 in test [1] amounted to 28.8 nM. Also, the EC50 in test [2] turned out to be 0.013 nM.

`Cc1ccncc1-c1ccc2[nH]nc(-c3nc4cccnc4[nH]3)c2c1` [Compound 239, 2-(5-(4-Methylpyridin-3-yl)-1H-indazol-3-yl)-3H-imidazo[4,5-b]pyridine] returned an IC50 in test [1] of 4100 nM. The molecule also displayed an EC50 in test [2] of 0.171 nM.

In test [1], `CN(C)Cc1cncc(-c2ccc3[nH]nc(-c4nc5cccnc5[nH]4)c3c2)c1` [Compound 247, 1-(5-(3-(3H-Imidazo[4,5-b]pyridin-2-yl)-1H-indazol-5-yl)pyridin-3-yl)-N,N-dimethylmethanamine] had an IC50 of 77 nM. The same molecule registered an EC50 in test [2] of 0.184 nM.

As for `CC(C)(C)CC(=O)Nc1cncc(-c2ccc3[nH]nc(-c4nc5cccnc5[nH]4)c3c2)c1` [Compound 250, N-(5-(3-(3H-Imidazo[4,5-b]pyridin-2-yl)-1H-indazol-5-yl)pyridin-3-yl)-3,3-dimethylbutanamide], the concentration for half-maximal inhibition (IC50) in test [1] stood at 124 nM. For the same molecule, in test [2], the response was half-maximal at 2.6 nM (EC50).

Molecule `O=C(Nc1cncc(-c2ccc3[nH]nc(-c4nc5cccnc5[nH]4)c3c2)c1)C1CCCCC1` [Compound 256, N-(5-(3-(3H-Imidazo[4,5-b]pyridin-2-yl)-1H-indazol-5-yl)pyridin-3-yl)cyclohexanecarboxamide] had an IC50 in test [1] of 66.3 nM. In test [2], this molecule had an EC50 of 0.401 nM.

In test [1], `Cc1ccncc1-c1ccc2[nH]nc(-c3nc4c(-c5ccsc5)ccnc4[nH]3)c2c1` [Compound 265, 2-(5-(4-Methylpyridin-3-yl)-1H-indazol-3-yl)-7-(thiophen-3-yl)-3H-imidazo[4,5-b]pyridine] had an IC50 of 9.4 nM. For the same molecule, the EC50 in test [2] turned out to be 0.131 nM.

Consider `CC(C)C(=O)Nc1cncc(-c2ccc3[nH]nc(-c4nc5c(-c6ccsc6)ccnc5[nH]4)c3c2)c1` [Compound 269, N-(5-(3-(7-(Thiophen-3-yl)-3H-imidazo[4,5-b]pyridin-2-yl)-1H-indazol-5-yl)pyridin-3-yl)isobutyramide], for which, in test [1], the 50% inhibitory concentration (IC50) was determined as 5.1 nM. In test [2], a half-maximal effect (EC50) was put at 9.99 nM.

Molecule `O=C(Cc1ccccc1)Nc1cncc(-c2ccc3[nH]nc(-c4nc5c(-c6ccsc6)ccnc5[nH]4)c3c2)c1` [Compound 270, 2-Phenyl-N-(5-(3-(7-(thiophen-3-yl)-3H-imidazo[4,5-b]pyridin-2-yl)-1H-indazol-5-yl)pyridin-3-yl)acetamide] yielded a half-maximal inhibitory concentration (IC50) in test [1] of 16.3 nM. The molecule further had a concentration for a half-maximal effect (EC50) in test [2] of 0.01 nM.

In test [1], `O=C(Nc1cncc(-c2ccc3[nH]nc(-c4nc5c(-c6ccsc6)ccnc5[nH]4)c3c2)c1)c1ccccc1` [Compound 271, N-(5-(3-(7-(Thiophen-3-yl)-3H-imidazo[4,5-b]pyridin-2-yl)-1H-indazol-5-yl)pyridin-3-yl)benzamide] showed an IC50 of 8.4 nM. This molecule had an EC50 in test [2] of 0.068 nM.

Molecule `O=C(Nc1cncc(-c2ccc3[nH]nc(-c4nc5c(-c6ccsc6)ccnc5[nH]4)c3c2)c1)C1CC1` [Compound 279, N-(5-(3-(7-(Thiophen-3-yl)-3H-imidazo[4,5-b]pyridin-2-yl)-1H-indazol-5-yl)pyridin-3-yl)cyclopropanecarboxamide] showed an IC50 in test [1] of 5.2 nM. Moreover, the response in test [2] was half-maximal at 0.306 nM (EC50).

In test [1], `O=C(Nc1cncc(-c2ccc3[nH]nc(-c4nc5c(-c6ccsc6)ccnc5[nH]4)c3c2)c1)C1CCCC1` [Compound 281, N-(5-(3-(7-(Thiophen-3-yl)-3H-imidazo[4,5-b]pyridin-2-yl)-1H-indazol-5-yl)pyridin-3-yl)cyclopentanecarboxamide] registered an IC50 of 9.8 nM. Further, in test [2], it took 0.359 nM to reach a half-maximal effect (EC50).

The molecule `c1ccc(CNCc2cncc(-c3ccc4[nH]nc(-c5nc6c(-c7ccsc7)ccnc6[nH]5)c4c3)c2)cc1` [Compound 283, N-Benzyl-1-(5-(3-(7-(thiophen-3-yl)-3H-imidazo[4,5-b]pyridin-2-yl)-1H-indazol-5-yl)pyridin-3-yl)methanamine] returned an IC50 in test [1] of 137 nM. The molecule further yielded a half-maximal effective concentration (EC50) in test [2] of 0.605 nM.

In test [1], `CCNCc1cncc(-c2ccc3[nH]nc(-c4nc5c(-c6ccoc6)ccnc5[nH]4)c3c2)c1` [Compound 292, N-((5-(3-(7-(Furan-3-yl)-3H-imidazo[4,5-b]pyridin-2-yl)-1H-indazol-5-yl)pyridin-3-yl)methyl)ethanamine] had a half-maximal inhibitory concentration (IC50) of 47.7 nM. The molecule further gave an EC50 in test [2] of 0.009 nM.

`CC(C)C(=O)Nc1cncc(-c2ccc3[nH]nc(-c4nc5c(-c6ccoc6)ccnc5[nH]4)c3c2)c1` [Compound 295, N-(5-(3-(7-(Furan-3-yl)-3H-imidazo[4,5-b]pyridin-2-yl)-1H-indazol-5-yl)pyridin-3-yl)isobutyramide]: the IC50 in test [1] stood at 5.1 nM. In test [2], this molecule had a concentration for a half-maximal effect (EC50) of 0.405 nM.

`CCCCC(=O)Nc1cncc(-c2ccc3[nH]nc(-c4nc5c(-c6ccoc6)ccnc5[nH]4)c3c2)c1` [Compound 304, N-(5-(3-(7-(Furan-3-yl)-3H-imidazo[4,5-b]pyridin-2-yl)-1H-indazol-5-yl)pyridin-3-yl)pentanamide] yielded a 50% inhibitory concentration (IC50) in test [1] of 6 nM. For the same molecule, the EC50 in test [2] was determined as 0.079 nM.
